# Measurements from patent US20220168427A1 (Ranok Therapeutics (Hangzhou) Co. Ltd., priority 2019, published 2022).
# What was measured:
# [1] = biological target: T1, BRD4 (BD1+BD2) (Homo sapiens, UniProt O60885); details: read-out: BRD4 Binding Potency
# T1 construct: 1.8 μg/ml recombinant BRD4 (BD1+BD2 domains) protein
# [2] = tested on: MV4-11 cells; assay: MV4-11 Cell Cytotoxicity Assay; assay type: cell-based, human; details: human, MV4-11 cells, CCK-8
# Text: % Inhibition=100−(D−B)/(S−B)*100%.
# S: The absorbance of the maximum (cells with DMSO)
# B: The absorbance of the minimum (medium with DMSO)
# [3] = biological target: HSP90α (Homo sapiens, UniProt P07900); assay: HSP90α Binding Fluorescent Polarization (FP) Assay; details: competition with FITC-geldanamycin; read-out: HSP90 Binding Potency
# How it was run: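 Duplicate wells held BSA buffer, FITC-geldanamycin tracer, compound (3-fold dilution plate spanning 40 μM–2.0 nM) and recombinant protein diluted to 28 μg/ml before addition. Polarization read at 30, 60 and 120 min, 25 °C. Background-corrected mP values gave IC50 through a four-parameter inhibitor-response fit.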
SMILES,IC50 [1],IC50 at 72 h [2],IC50 [3]
"CCN(Cc1ccc(OCCCNC(=O)C[C@@H]2N=C(c3ccc(Cl)cc3)c3c(sc(C)c3C)-n3c(C)nnc32)cc1)Cc1ccc(-n2c(O)nnc2-c2cc(C(C)C)c(O)cc2O)cc1 [Compound 100, (S)-2-(4-(4-chlorophenyl)-2,3,9-trimethyl-6H-thieno[3,2-f][1,2,4]triazolo[4,3-a][1,4]diazepin-6-yl)-N-(3-(4-(((4-(3-(2,4-dihydroxy-5-isopropylphenyl)-5-hydroxy-4H-1,2,4-triazol-4-yl)benzyl)(ethyl)amino)methyl)phenoxy)propyl)acetamide, formic acid]",100 to 1000 nM,< 100 nM,100 to 1000 nM
"Cc1sc2c(c1C)C(c1ccc(Cl)cc1)=NC(CC(=O)N[C@H](C)c1ccc(CN3CCN(Cc4ccc(-n5c(O)nnc5-c5cc(C(C)C)c(O)cc5O)cc4)CC3)cc1)c1nnc(C)n1-2 (stereo in doubt) [Compound 70, 2-((6S)-4-(4-chlorophenyl)-2,3,9-trimethyl-6H-thieno[3,2-f][1,2,4]triazolo[4,3-a][1,4]diazepin-6-yl)-N—((R)-1-(4-((4-(4-(3-(2,4-dihydroxy-5-isopropylphenyl)-5-hydroxy-4H-1,2,4-triazol-4-yl)benzyl)piperazin-1-yl)methyl)phenyl)ethyl)acetamide, trifluoroacetic acid]",100 to 1000 nM,< 100 nM,100 to 1000 nM
"CCN(CC)CCNC(=O)c1nnc(-c2cc(C(C)C)c(O)cc2O)n1-c1ccc(CN2CCN(CC3CCN(C(=O)C[C@@H]4N=C(c5ccc(Cl)cc5)c5c(sc(C)c5C)-n5c(C)nnc54)CC3)CC2)cc1 [Compound 118, (S)-4-(4-((4-((1-(2-(4-(4-chlorophenyl)-2,3,9-trimethyl-6H-thieno[3,2-f][1,2,4]triazolo[4,3-a][1,4]diazepin-6-yl)acetyl)piperidin-4-yl)methyl)piperazin-1-yl)methyl)phenyl)-N-(2-(diethylamino)ethyl)-5-(2,4-dihydroxy-5-isopropylphenyl)-4H-1,2,4-triazole-3-carboxamide, trifluoroacetic acid]",< 100 nM,< 100 nM,100 to 1000 nM
"Cc1sc2c(c1C)C(c1ccc(Cl)cc1)=N[C@@H](CC(=O)N1CCC(CN3CCN(Cc4ccc(-n5c(S)nnc5-c5cc(C(C)C)c(O)cc5O)cc4)CC3)CC1)c1nnc(C)n1-2 [Compound 12, 2-((6S)-4-(4-chlorophenyl)-2,3,9-trimethyl-6H-thieno[3,2-f][1,2,4]triazolo[4,3-a][1,4]diazepin-6-yl)-1-(4-((4-(4-(3-(2,4-dihydroxy-5-isopropylphenyl)-5-mercapto-4H-1,2,4-triazol-4-yl)benzyl)piperazin-1-yl)methyl)piperidin-1-yl)ethanone, trifluoroacetic acid]",> 1000 nM,< 100 nM,< 100 nM
COc1cccc(-c2cc(C(=O)Nc3ccc(-c4ccc(OC5CCN(C(=O)CNC(=O)C[C@@H]6N=C(c7ccc(Cl)cc7)c7c(sc(C)c7C)-n7c(C)nnc76)CC5)cc4OCCN(C)C)cc3)ccc2OC)c1 [Compound 138],< 100 nM,< 100 nM,> 1000 nM
"Cc1cc(-c2nnc(O)n2-c2ccc(CN3CCN(CC4CCN(C(=O)C[C@@H]5N=C(c6ccc(Cl)cc6)c6c(sc(C)c6C)-n6c(C)nnc65)CC4)CC3)cc2)c(O)cc1O [Compound 9, 2-((6S)-4-(4-chlorophenyl)-2,3,9-trimethyl-6H-thieno[3,2-f][1,2,4]triazolo[4,3-a][1,4]diazepin-6-yl)-1-(4-((4-(4-(3-(2,4-dihydroxy-5-methylphenyl)-5-hydroxy-4H-1,2,4-triazol-4-yl)benzyl)piperazin-1-yl)methyl)piperidin-1-yl)ethanone, trifluoroacetic acid]",< 100 nM,< 100 nM,100 to 1000 nM
"Cc1sc2c(c1C)C(c1ccc(Cl)cc1)=N[C@@H](CC(=O)N1CCC(CN3CCC(Cc4ccc(-n5c(O)nnc5-c5cc(C(C)C)c(O)cc5O)cc4)CC3)CC1)c1nnc(C)n1-2 [Compound 94, (S)-2-(4-(4-chlorophenyl)-2,3,9-trimethyl-6H-thieno[3,2-f][1,2,4]triazolo[4,3-a][1,4]diazepin-6-yl)-1-(4-((4-(4-(3-(2,4-dihydroxy-5-isopropylphenyl)-5-hydroxy-4H-1,2,4-triazol-4-yl)benzyl)piperidin-1-yl)methyl)piperidin-1-yl)ethan-1-one, trifluoroacetic acid]",100 to 1000 nM,< 100 nM,< 100 nM
"Cc1sc2c(c1C)C(c1ccc(Cl)cc1)=N[C@@H](CC(=O)N1CCC(CN3CCN(Cc4ccc(-n5c(C(=O)NCC(F)(F)F)nnc5-c5cc(C(C)C)c(O)cc5O)cc4)CC3)CC1)c1nnc(C)n1-2 [Compound 13, 4-(4-((4-((1-(2-((6S)-4-(4-chlorophenyl)-2,3,9-trimethyl-6H-thieno[3,2-f][1,2,4]triazolo[4,3-a][1,4]diazepin-6-yl)acetyl)piperidin-4-yl)methyl)piperazin-1-yl)methyl)phenyl)-5-(2,4-dihydroxy-5-isopropylphenyl)-N-(2,2,2-trifluoroethyl)-4H-1,2,4-triazole-3-carboxamide]",100 to 1000 nM,< 100 nM,100 to 1000 nM
"Cc1sc2c(c1C)C(c1ccc(Cl)cc1)=N[C@@H](CC(=O)N1CCC(CN3CCN(Cc4ccc(-n5c(C(=O)NC(C)C)nnc5-c5ccc(O)cc5O)cc4)CC3)CC1)c1nnc(C)n1-2 [Compound 119, (S)-4-(4-((4-((1-(2-(4-(4-chlorophenyl)-2,3,9-trimethyl-6H-thieno[3,2-f][1,2,4]triazolo[4,3-a][1,4]diazepin-6-yl)acetyl)piperidin-4-yl)methyl)piperazin-1-yl)methyl)phenyl)-5-(2,4-dihydroxyphenyl)-N-isopropyl-4H-1,2,4-triazole-3-carboxamide, trifluoroacetic acid]",< 100 nM,< 100 nM,100 to 1000 nM
"Cc1sc2c(c1C)C(c1ccc(Cl)cc1)=N[C@@H](CC(=O)NCCOCc1ccc(-n3c(O)nnc3-c3cc(C(C)C)c(O)cc3O)cc1)c1nnc(C)n1-2 [Compound 52, 2-((6S)-4-(4-chlorophenyl)-2,3,9-trimethyl-6H-thieno[3,2-f][1,2,4]triazolo[4,3-a][1,4]diazepin-6-yl)-N-(2-((4-(3-(2,4-dihydroxy-5-isopropylphenyl)-5-hydroxy-4H-1,2,4-triazol-4-yl)benzyl)oxy)ethyl)acetamide]",> 1000 nM,100 to 1000 nM,< 100 nM
"Cc1sc2c(c1C)C(c1ccc(Cl)cc1)=N[C@@H](CC(=O)N1CCC(CN3CCN(Cc4ccc(-n5c(C(N)=O)nnc5-c5cc(C(C)C)c(O)cc5O)cc4)CC3)CC1)c1nnc(C)n1-2 [Compound 109, (S)-4-(4-((4-((1-(2-(4-(4-chlorophenyl)-2,3,9-trimethyl-6H-thieno[3,2-f][1,2,4]triazolo[4,3-a][1,4]diazepin-6-yl)acetyl)piperidin-4-yl)methyl)piperazin-1-yl)methyl)phenyl)-5-(2,4-dihydroxy-5-isopropylphenyl)-4H-1,2,4-triazole-3-carboxamide, trifluoroacetic acid]",< 100 nM,< 100 nM,100 to 1000 nM
"Cc1sc2c(c1C)C(c1ccc(Cl)cc1)=N[C@@H](CCNCC1CCN(C(=O)C3CCN(Cc4ccc(-n5c(O)nnc5-c5cc(C(C)C)c(O)cc5O)cc4)CC3)C1)c1nnc(C)n1-2 (stereo partly drawn) [Compound 66, (3-(((2-((6S)-4-(4-chlorophenyl)-2,3,9-trimethyl-6H-thieno[3,2-f][1,2,4]triazolo[4,3-a][1,4]diazepin-6-yl)ethyl)amino)methyl)pyrrolidin-1-yl)(1-(4-(3-(2,4-dihydroxy-5-isopropylphenyl)-5-hydroxy-4H-1,2,4-triazol-4-yl)benzyl)piperidin-4-yl)methanone, trifluoroacetic acid]",> 1000 nM,100 to 1000 nM,100 to 1000 nM
"Cc1nn(-c2ccc(C(N)=O)c(NCCOCCNC(=O)C[C@@H]3N=C(c4ccc(Cl)cc4)c4c(sc(C)c4C)-n4c(C)nnc43)c2)c2c1C(=O)CC(C)(C)C2 [Compound 20, 2-((2-(2-(2-((6S)-4-(4-chlorophenyl)-2,3,9-trimethyl-6H-thieno[3,2-f][1,2,4]triazolo[4,3-a][1,4]diazepin-6-yl)acetamido)ethoxy)ethyl)amino)-4-(3,6,6-trimethyl-4-oxo-4,5,6,7-tetrahydro-1H-indazol-1-yl)benzamide]",> 1000 nM,100 to 1000 nM,> 1000 nM
"Cc1sc2c(c1C)C(c1ccc(Cl)cc1)=N[C@@H](CC(=O)N1CCC(CN3CCN(Cc4ccc(-n5c(O)nnc5-c5cc(C(C)C)c(O)cc5O)cc4)CC3)CC1)c1nnc(C)n1-2 [Compound 103, (S)-2-(4-(4-chlorophenyl)-2,3,9-trimethyl-6H-thieno[3,2-f][1,2,4]triazolo[4,3-a][1,4]diazepin-6-yl)-1-(4-((4-(4-(3-(2,4-dihydroxy-5-isopropylphenyl)-5-hydroxy-4H-1,2,4-triazol-4-yl)benzyl)piperazin-1-yl)methyl)piperidin-1-yl)ethan-1-one acetate]",100 to 1000 nM,< 100 nM,100 to 1000 nM
"Cc1sc2c(c1C)C(c1ccc(Cl)cc1)=N[C@@H](CC(=O)N1CCN(Cc3ccc4c(c3)CN(C(=O)c3cc(C(C)C)c(O)cc3O)C4)CC1)c1nnc(C)n1-2 [Compound 141, (S)-2-(4-(4-chlorophenyl)-2,3,9-trimethyl-6H-thieno[3,2-f][1,2,4]triazolo[4,3-a][1,4]diazepin-6-yl)-1-(4-((2-(2,4-dihydroxy-5-isopropylbenzoyl)isoindolin-5-yl)methyl)piperazin-1-yl)ethan-1-one]",100 to 1000 nM,100 to 1000 nM,100 to 1000 nM
